Experimental data reported in US9828375B2, “4-position substituted pyrazolopyrimidine derivative, and use thereof in drug preparation” (Guangxi Wuzhou Pharmaceuticals (Group) Co., Ltd., priority 2012, dated 2017).

Key:
VEGFR2 = VEGFR2 (Homo sapiens, UniProt P35968); assay: Kinase inhibition activity test, isotope labeling (γ-33P-ATP): VEGFR2; type: biochemical; details: for IC50: ATP 90 μM, read-out: VEGFR2 IC50 value (inhibitory activity value); for Activity inhibition rate VEGFR2 (h) / inhibition at 10 µM: test compound at a concentration of 10 μM; for inhibition at 10 µM: read-out: Activity inhibition rate VEGFR2 (h)
VEGFR2, sequence (P35968 20-1356): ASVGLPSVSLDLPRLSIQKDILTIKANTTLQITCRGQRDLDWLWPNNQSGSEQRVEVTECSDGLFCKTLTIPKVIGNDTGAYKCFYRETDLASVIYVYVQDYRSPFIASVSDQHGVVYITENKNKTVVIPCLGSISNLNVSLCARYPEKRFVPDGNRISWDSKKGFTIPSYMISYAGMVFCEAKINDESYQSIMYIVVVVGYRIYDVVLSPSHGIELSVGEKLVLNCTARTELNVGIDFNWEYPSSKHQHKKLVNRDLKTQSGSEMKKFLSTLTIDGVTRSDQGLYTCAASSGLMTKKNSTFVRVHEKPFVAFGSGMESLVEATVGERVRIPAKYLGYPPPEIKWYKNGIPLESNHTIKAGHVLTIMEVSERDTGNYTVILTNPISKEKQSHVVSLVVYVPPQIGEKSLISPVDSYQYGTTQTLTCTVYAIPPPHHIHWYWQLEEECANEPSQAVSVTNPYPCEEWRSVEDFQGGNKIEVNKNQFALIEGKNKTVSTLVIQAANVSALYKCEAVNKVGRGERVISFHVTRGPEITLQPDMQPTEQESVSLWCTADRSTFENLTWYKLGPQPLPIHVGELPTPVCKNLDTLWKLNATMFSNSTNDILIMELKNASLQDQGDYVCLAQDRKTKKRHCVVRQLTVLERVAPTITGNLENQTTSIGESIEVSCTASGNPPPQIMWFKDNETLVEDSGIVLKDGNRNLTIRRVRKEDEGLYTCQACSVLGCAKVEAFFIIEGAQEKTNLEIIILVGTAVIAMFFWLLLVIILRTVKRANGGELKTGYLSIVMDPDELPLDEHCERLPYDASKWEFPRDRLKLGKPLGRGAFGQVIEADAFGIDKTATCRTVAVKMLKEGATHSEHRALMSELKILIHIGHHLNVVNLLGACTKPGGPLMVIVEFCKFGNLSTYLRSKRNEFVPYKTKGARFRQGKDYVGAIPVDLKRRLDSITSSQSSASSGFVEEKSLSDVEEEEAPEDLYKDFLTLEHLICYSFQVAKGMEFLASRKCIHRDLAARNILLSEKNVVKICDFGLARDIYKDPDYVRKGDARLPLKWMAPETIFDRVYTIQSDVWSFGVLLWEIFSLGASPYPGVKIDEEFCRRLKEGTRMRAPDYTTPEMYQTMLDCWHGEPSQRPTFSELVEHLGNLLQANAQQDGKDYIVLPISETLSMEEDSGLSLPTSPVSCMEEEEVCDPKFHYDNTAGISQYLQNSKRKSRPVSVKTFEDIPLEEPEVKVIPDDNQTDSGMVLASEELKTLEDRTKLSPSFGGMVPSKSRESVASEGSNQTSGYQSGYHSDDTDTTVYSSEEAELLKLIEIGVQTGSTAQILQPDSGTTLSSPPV
Description: (§1) The purpose of this experiment was to test the inhibitory activity of the compound of the invention for in vitro kinase with the isotope labeling method (the γ phosphate group on ATP was labeled). In this experiment, the in vitro activity inhibition of such kinases as FLT3, VEGFR2, FLT1, FLT4, RET, c-RAF, B-RAF, c-KIT, PDGFα, PDGFβ, FGFR2, FGFR1, EphA2, EphB2, SRC, ABL, ALK and Met was tested respectively. Staurosporine was reference molecule (or referred to as positive control). The kinase inhibition activity of the test compound was expressed by half-inhibitory concentration (IC50) or the kinase activity inhibition rate of the test compound at a concentration of 10 μM. The IC50 value could be obtained by calculating the kinase activity inhibition rate of the test compound at different concentrations.
(§2) 20 mM 3-(N-morpholinyl)propanesulfonic acid (MOPS); 1 mM ethylenediaminetetraacetic acid (EDTA), 0.01% Brij 35 (Brij-35), 5% glycerol, 0.1% mercaptoethanol, 1 mg/mL bovine serum albumin (BSA), 10 mM manganous dichloride solution (MnCl2), 0.1 mg/mL glutamic acid/tyrosine (4:1) polypeptide (poly(Glu, Tyr)4:1), 50 μM EAIYAAPFAKKK (substrate of FLT3), 0.33 mg/mL myelin basic protein (substrate of VEGFR2), 250 μM KKKSPGEYVNIEFG (substrate of FLT1(h)), 500 μM GGEEEEYFELVKKKK (substrate of FLT4(h)), 250 μM KKKSPGEYVNIEFG (substrate of RET), 0.66 mg/mL myelin basic protein (substrate of C-RAF), 250 μM GGMEDIYFEFMGGKKK (substrate of c-Kit), 250 μM GGMEDIYFEFMGGKKK (substrate of PDGFα), 250 μM KKKSPGEYVNIEFG (substrate of FGFR1), […] GGEEEEYFELVKKKK (substrate of SRC), 50 μM EAIYAAPFAKKK (substrate of ABL), 250 μM KKKSPGEYVNIEFG (substrate of ALK), 250 μM KKKSPGEYVNIEFG (substrate of Met(h)), 10 mM magnesium acetate and γ-^33 P-ATP solution, stop buffer (3% phosphate buffer), washing buffer (75 mM phosphate solution), methanol, Filtermat A membrane, FLT3, VEGFR2, FLT3, VEGFR2, FLT1, FLT4, RET, c-RAF, B-RAF, c-KIT, PDGFRα, PDGFRβ, FGFR2, FGFR1, EphA2, EphB2, SRC, ABL, ALK, Met and other kinases, and the test compounds.
(§3) Buffers (8 mM MOPS with pH value of 7.0, 0.2 mM EDTA and 10 mM MnCl2), (5-10 mU) kinases to be tested (FLT3, VEGFR2, FLT1, FLT4, RET, c-RAF, B-RAF, c-KIT, PDGFRα, PDGFRβ, FGFR2, FGFR1, EphA2, EphB2, SRC, ABL, ALK and Met), substrates of kinases to be tested (refer to experimental materials), 10 mM magnesium acetate and γ-^33 P-ATP solution, and test compounds at different concentrations were added to a reaction tube orderly. […] Reaction was terminated with 5 μL 3% phosphate buffer finally, and 10 μL reaction solution was titrated to the Filtermat A membrane; solution was washed for 3 times with 75 mM phosphate solution with each time lasting 5 minutes, and then washed once with methanol. Finally, the Filtermat A membrane was dried, and scintillation counting was performed on the membrane, with scintillation count reflecting the phosphorylation degree of the substrates, so that the activity inhibition of kinase could be characterized.

c-KIT = c-KIT (Homo sapiens, UniProt P10721); assay: Kinase inhibition activity test, isotope labeling: c-KIT; type: biochemical; details: for Activity inhibition rate c-Kit (h) / inhibition at 10 µM: test compound at a concentration of 10 μM; for inhibition at 10 µM: read-out: Activity inhibition rate c-Kit (h); for IC50: ATP 200 μM, read-out: c-KIT IC50 value (inhibitory activity value)
c-KIT, sequence (P10721 26-976): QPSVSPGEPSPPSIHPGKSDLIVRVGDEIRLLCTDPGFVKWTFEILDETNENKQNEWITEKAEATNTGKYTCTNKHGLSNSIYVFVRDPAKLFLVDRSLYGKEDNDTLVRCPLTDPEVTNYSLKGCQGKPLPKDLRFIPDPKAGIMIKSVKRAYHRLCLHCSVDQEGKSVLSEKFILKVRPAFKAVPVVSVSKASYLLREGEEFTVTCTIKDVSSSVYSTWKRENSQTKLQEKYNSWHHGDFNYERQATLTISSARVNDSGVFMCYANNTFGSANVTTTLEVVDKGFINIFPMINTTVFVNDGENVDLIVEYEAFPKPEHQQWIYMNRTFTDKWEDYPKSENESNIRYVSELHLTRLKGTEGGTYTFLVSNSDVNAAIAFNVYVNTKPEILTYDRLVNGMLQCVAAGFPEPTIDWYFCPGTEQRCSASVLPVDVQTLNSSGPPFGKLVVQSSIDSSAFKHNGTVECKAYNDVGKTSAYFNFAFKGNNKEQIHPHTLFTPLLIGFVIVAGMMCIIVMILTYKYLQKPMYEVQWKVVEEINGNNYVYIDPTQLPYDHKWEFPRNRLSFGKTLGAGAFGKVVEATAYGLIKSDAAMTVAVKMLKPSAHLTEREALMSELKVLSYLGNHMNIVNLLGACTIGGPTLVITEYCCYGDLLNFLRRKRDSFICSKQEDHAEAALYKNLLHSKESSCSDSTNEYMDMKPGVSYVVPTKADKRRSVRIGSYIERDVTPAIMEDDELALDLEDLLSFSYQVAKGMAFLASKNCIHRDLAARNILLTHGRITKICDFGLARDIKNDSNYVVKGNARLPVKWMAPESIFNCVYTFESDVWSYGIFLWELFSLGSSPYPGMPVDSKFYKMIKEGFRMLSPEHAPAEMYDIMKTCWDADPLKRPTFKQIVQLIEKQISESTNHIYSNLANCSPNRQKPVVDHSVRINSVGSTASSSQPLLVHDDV
Description: as §1, §2, §3

FGFR2 = FGFR2 (Homo sapiens, UniProt P21802); assay: Kinase inhibition activity test, isotope labeling: FGFR2; type: biochemical; details: for Activity inhibition rate FGFR2 (h) / inhibition at 10 µM: test compound at a concentration of 10 μM; for inhibition at 10 µM: read-out: Activity inhibition rate FGFR2 (h); for IC50: ATP 90 μM, read-out: FGFR2 IC50 value (inhibitory activity value)
FGFR2, sequence (P21802 22-821): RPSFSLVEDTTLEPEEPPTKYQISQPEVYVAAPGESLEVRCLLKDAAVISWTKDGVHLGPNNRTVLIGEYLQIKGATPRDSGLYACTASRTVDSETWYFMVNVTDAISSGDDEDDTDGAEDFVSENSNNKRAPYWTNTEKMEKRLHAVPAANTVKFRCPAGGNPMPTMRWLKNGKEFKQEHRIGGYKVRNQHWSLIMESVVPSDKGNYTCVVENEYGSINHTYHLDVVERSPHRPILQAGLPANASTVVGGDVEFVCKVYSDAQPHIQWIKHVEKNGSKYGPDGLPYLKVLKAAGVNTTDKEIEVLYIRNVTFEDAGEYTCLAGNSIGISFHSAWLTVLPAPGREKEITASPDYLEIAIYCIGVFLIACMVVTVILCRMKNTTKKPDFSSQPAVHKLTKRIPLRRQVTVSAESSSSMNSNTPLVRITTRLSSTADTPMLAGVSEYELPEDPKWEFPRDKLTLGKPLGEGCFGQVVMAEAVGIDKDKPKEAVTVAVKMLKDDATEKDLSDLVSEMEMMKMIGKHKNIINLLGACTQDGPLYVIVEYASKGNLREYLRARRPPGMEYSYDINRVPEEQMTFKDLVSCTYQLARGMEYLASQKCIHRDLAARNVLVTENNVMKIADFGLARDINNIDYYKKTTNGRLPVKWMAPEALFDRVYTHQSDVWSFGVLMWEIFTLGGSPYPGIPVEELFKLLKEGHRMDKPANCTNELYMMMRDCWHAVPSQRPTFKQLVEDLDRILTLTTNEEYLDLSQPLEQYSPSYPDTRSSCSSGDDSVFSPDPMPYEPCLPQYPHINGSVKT
Description: as §1, §2, §3

[1] = tested on: human pancreatic carcinoma cell line panc-1; assay: In vitro tumor cell proliferation inhibition (MTT): panc-1; type: cell-based
Text: (§4) The purpose of the experiment was to test the inhibition activity of the compounds of the invention for in vitro human tumor cell proliferation by the methyl thiazolyl tetrazolium (MTT) colorimetry.
(§5) Main reagents: RPMI-1640, fetal bovine serum, pancreatin, etc. were purchased from Gibco BRL Company (Invitrogen Corporation, USA) and IMDM medium that was purchased from American Type Culture Collection (ATCC). Methyl thiazolyl tetrazolium (MTT) and dimethyl sulfoxide (DMSO) were products from Sigma Company (USA). Pyrazolopyrimidine derivatives were composed by the inventor. During in vitro experiment, 100% DMSO was prepared into 10 mM storage solution, the solution was stored in a refrigerator at −20° C. for future use, and was diluted to the required concentration with complete culture solution before use.
(§6) Cell line and culture: Human leukemia cell line MV4-11, Jurkat, K562, human thyrophyma cell line TT, human gastric carcinoma cell line MKN-45, human malignant melanoma cell lines A375 and A875, human pancreatic carcinoma cell line panc-1, human cervical carcinoma cell line HELA, human colorectal carcinoma cell line HCT116, etc. were purchased from American type culture collection and were preserved by this laboratory. All leukemia cell lines (except MV4-11), gastric carcinoma cell lines and thyrophyma cell lines were cultured in RPMI-1640 complete medium containing 10% fetal bovine serum, 100 U/mL penicillin and 100 μg/mL streptomycin at 37° C. in 5% CO2. The remaining cell lines were cultured in DMEM complete medium containing 10% fetal bovine serum (containing 20% MV4-11 cell), 100 U/mL penicillin and 100 µg/mL streptomycin at 37° C. in 5% CO2.
(§7) Cell suspension with cell concentration of 1-2×10^4/mL was adjusted with the complete cell medium and inoculated in a 96-well plate, with each well filled with 200 μl cell suspension that was cultured overnight. On the next day, supernatant was sucked and abandoned (supernatant was sucked upon centrifugation of suspension cells), and then cells were processed with test compounds at gradient concentrations respectively. Meanwhile, a negative control group free from drug and a solvent control group with equal volume were set, and the DMSO concentration was 0.1%. Each dose group was provided with three wells and cultured at 37° C. in 5% CO2. After 72 hours, 20 μl 5 mg/mL MTT reagent was added to each well, and cultured for another 2 to 4 hours, the supernatant was abandoned; 150 μL DMSO was added to each well again, vibrated and mixed evenly for 15 minutes; the absorbance (A) values (proportional to living cell amount) were determined with a microplate reader (λ=570 nm) and averaged. […] Experiment was repeated for 3 times at least. Experimental data were expressed with means, data statistics were tested by t, and P<0.05 means that difference has a statistical significance. The cell proliferation inhibition effects of all compounds as follows are expressed by IC50 or inhibition rate.

[2] = tested on: human leukemia cell line Jurkat; assay: In vitro tumor cell proliferation inhibition (MTT): Jurkat; type: cell-based; details: 72 hours
Text: as §4, §5, §6, §7

Compound	IC50 (VEGFR2)	Activity inhibition rate VEGFR2 (h) (VEGFR2)	Activity inhibition rate c-Kit (h) (c-KIT)	Activity inhibition rate FGFR2 (h) (FGFR2)	IC50 ([1]; 72 hours)	IC50 [2]	inhibition at 10 µM (VEGFR2)	inhibition at 10 µM (c-KIT)	inhibition at 10 µM (FGFR2)	IC50 ([1]; Homo sapiens, PANC-1, 72 hours)	IC50 ([2]; Homo sapiens, Jurkat)	IC50 (c-KIT)	IC50 (FGFR2)
1-(4-((1H-pyrazolopyrimidine-4-yl)oxy)-3-fluorophenyl)-3-(3-trifluoromethoxy)phenyl)urea [4a-8]	0.029 µM	100%	95%	6%	4.65 µM	< 50 µM							
O=C(Nc1ccc(Oc2ncnc3[nH]ncc23)cc1)Nc1ccc(C(F)(F)F)cc1 [4a-1]	0.03 µM						100%	100%	22%	< 50 µM	< 50 µM		
O=C(Nc1ccc(Oc2ncnc3[nH]ncc23)cc1)Nc1ccc(Cl)c(C(F)(F)F)c1 [4a-2]	0.012 µM	100%	100%	80%	< 50 µM	8.72 µM						0.507 µM	1.8 µM
O=C(Nc1ccc(Oc2ncnc3[nH]ncc23)cc1)Nc1cccc(C(F)(F)F)c1 [4a-6]	0.011 µM						100%	100%	56%	< 50 µM	4.28 µM	0.313 µM	< 10 µM
CC(C)c1cccc(NC(=O)Nc2ccc(Oc3ncnc4[nH]ncc34)c(F)c2)c1 [4a-7, 1-(4-((1H-pyrazolopyrimidine-4-yl)oxy)-3-fluorophenyl)-3-(3-isopropylphenyl)urea]	0.032 µM	100%	98%	51%	< 50 µM	< 50 µM							
O=C(Nc1ccc(C(F)(F)F)cc1)Nc1ccc(Oc2ncnc3[nH]ncc23)c(F)c1 [4a-9, 1-(4-((1H-pyrazolopyrimidine-4-yl)oxy)-3-fluorophenyl)-3-(4-(trifluoromethyl)phenyl)urea]	0.019 µM	100%	29%	18%	2.31 µM	< 50 µM							
O=C(Nc1ccc(Oc2ncnc3[nH]ncc23)c(F)c1)Nc1ccc(Cl)c(C(F)(F)F)c1 [4a-10, 1-(4-((1H-pyrazolopyrimidine-4-yl)oxy)-3-fluorophenyl)-3-(4-chloro-3-(trifluoromethyl)phenyl)urea]	0.021 µM	100%	49%	53%	< 50 µM	9.93 µM							

Continued, in another order:

IC50 (VEGFR2)	Activity inhibition rate VEGFR2 (h) (VEGFR2)	Activity inhibition rate c-Kit (h) (c-KIT)	Activity inhibition rate FGFR2 (h) (FGFR2)	IC50 ([1]; 72 hours)	IC50 [2]	inhibition at 10 µM (VEGFR2)	inhibition at 10 µM (c-KIT)	inhibition at 10 µM (FGFR2)	IC50 ([1]; Homo sapiens, PANC-1, 72 hours)	IC50 ([2]; Homo sapiens, Jurkat)	Compound	IC50 (c-KIT)	IC50 (FGFR2)
	64%	98%	19%	< 50 µM	< 50 µM						1-(4-((1H-pyrazolopyrimidine-4-yl)oxy)phenyl)-3-(methylcyclohexyl)urea [4a-20]		
0.024 µM	100%	58%	71%	< 50 µM	< 50 µM						O=C(Nc1ccc(Oc2ncnc3[nH]ncc23)cc1)Nc1cc(C(F)(F)F)cc(C(F)(F)F)c1 [4a-12, 1-(4-((1H-pyrazolopyrimidine-4-yl)oxy)phenyl)-3-(3,5-bis(trifluoromethyl)phenyl)urea]		
0.037 µM	100%	85%	13%	< 50 µM	< 50 µM						O=C(Nc1ccc(Oc2ncnc3[nH]ncc23)cc1)Nc1ccc(C(F)(F)F)cc1Cl [4a-13]		
0.028 µM	100%	66%	100%	< 50 µM	< 50 µM						O=C(Nc1ccccc1)Nc1ccc(Oc2ncnc3[nH]ncc23)cc1 [4a-15, 1-(4-((1H-pyrazolopyrimidine-4-yl)oxy)phenyl)-3-phenylurea]		
						91%	77%		< 50 µM	< 50 µM	O=C(Nc1ccc(Oc2ncnc3[nH]ncc23)cc1)Nc1ccc(N2CCOCC2)cc1 [4a-16, 1-(4-((1H-pyrazolopyrimidine-4-yl)oxy)phenyl)-3-(4-morpholinylphenyl)urea]		
	92%	93%	17%	< 50 µM							C[C@@H](NC(=O)Nc1ccc(Oc2ncnc3[nH]ncc23)cc1)c1ccccc1 [4a-19, (R)-1-(4-((1H-pyrazolopyrimidine-4-yl)oxy)phenyl)-3-(1-phenethyl)urea]		
0.014 µM	100%	>90%	>50%	< 50 µM							CC(C)(C)c1cc(NC(=O)Nc2ccc(Oc3ncnc4[nH]ncc34)cc2)n(-c2ccccc2)n1 [4a-24]		
						97%	> 30%	52%			O=C(Nc1ccc(NC(=O)N2C=NC=C3NNC=C32)cc1)Nc1ccc(Cl)c(C(F)(F)F)c1 [4b-5, 1-(4-(1H-pyrazolopyrimidine-4-amido)phenyl)-3-(4-chloro-3-(trifluoromethyl)phenyl)urea]		
